From patent US12344610B2, “APOL1 inhibitors and methods of use” (Maze Therapeutics, Inc., priority 2022, dated 2025)
Like-named read-outs stand apart in the source and are kept apart here.

How the values were obtained:
Type in all cases: cell-based
[1] = tested on: Trypanosoma brucei Lister 427 VSG221 with APOL1 G1 recombinant protein; assay: APOL1 G1 trypanosome cell rescue assay (Example B5); settings: geometric mean of at least 2 assay runs, † = single assay run
Outline: (§1)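 Mature APOL1 (residues 28-398, E. coli-expressed, His-tag removed by TEV) was added as a 2 μg/mL solution to T. brucei Lister 427 VSG221 in modified HMI-9 medium at 250 cells/well, with duplicate 11-point 2-fold compound dilutions (0.4% DMSO). After 20 h at 37° C, 5% CO2, viability was read by CellTiter-Glo luminescence.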

[2] = tested on: HEK293 clonal cell line overexpressing APOL1 G1; assay: APOL1 G1 HEK293 cell rescue assay (Example B3); settings: geometric mean of at least 2 runs, † = single run, ¥ = concentration at 50% rescue estimated (no sigmoidal curve)
Outline: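 HEK293 clonal line overexpressing APOL1 G1; EC50 is half-maximal reversal of APOL1-induced cell death. Values are the geometric mean of ≥2 runs on separate days, each run the average of duplicate wells. Where no sigmoidal curve could be fitted, the concentration giving 50% rescue was estimated.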

[3] = tested on: Trypanosoma brucei Lister 427 VSG221 with APOL1 G2 recombinant protein; assay: APOL1 G2 trypanosome cell rescue assay (Example B5); settings: geometric mean of at least 2 assay runs, † = single assay run
Outline: as §1

[4] = Trypanosoma brucei, 20 h, read-out: APOL1 G1 Trypanosome Rescue EC50, Trypanosoma brucei Lister 427 VSG221 with APOL1 G1 recombinant protein, 20 hours, CellTiter-Glo
[5] = Homo sapiens, HEK293, HEK293 clonal line overexpressing APOL1 G1
[6] = Trypanosoma brucei, 20 h, read-out: APOL1 G2 Trypanosome Rescue EC50, Trypanosoma brucei Lister 427 VSG221 with APOL1 G2 recombinant protein, 20 hours, CellTiter-Glo
[7] = read-out: APOL1 G1 Trypanosome Rescue EC50, Trypanosoma brucei Lister 427 VSG221 with APOL1 G1 recombinant protein, 20 hours, CellTiter-Glo
[8] = HEK293 clonal line overexpressing APOL1 G1
[9] = read-out: APOL1 G2 Trypanosome Rescue EC50, Trypanosoma brucei Lister 427 VSG221 with APOL1 G2 recombinant protein, 20 hours, CellTiter-Glo

Row | SMILES | EC50 [1, 4] [nM] | EC50 [2, 5] [nM] | EC50 [3, 6] [nM] | EC50 [1, 7] [nM] | EC50 [2, 8] [nM] | EC50 [3, 9] [nM]
1 | CC(O)c1ncc(OCCN2CCC3(CC2)C(=O)Nc2ccc(Cl)cc23)cn1 (single isomer, unassigned) [Compound 285, 5-chloro-1′-[2-({2-[(1S) or (1R)-1-hydroxyethyl]pyrimidin-5-yl}oxy)ethyl]-1,2-dihydrospiro[indole-3,4′-piperidin]-2-one] | 749 | 292 | 212 |  |  | 
2 | O=C(c1ccc(OCCN2CCC3(CC2)C(=O)Nc2ccc(Cl)cc23)cc1C(F)(F)F)N1CCS(=O)(=O)CC1 [Compound 272, 4-[4-(2-{5-chloro-2-oxo-1,2-dihydrospiro[indole-3,4′-piperidin]-1′-yl}ethoxy)-2-(trifluoromethyl)benzoyl]-1λ^6-thiomorpholine-1,1-dione] | 73.2 | 148 | 18.9 |  |  | 
3 | O=C(c1ccc(OCCN2CCC3(CC2)C(=O)Nc2ccc(Cl)cc23)cc1F)N1CC(O)C1 [Compound 235, 5-chloro-1′-{2-[3-fluoro-4-(3-hydroxyazetidine-1-carbonyl)phenoxy]ethyl}-1,2-dihydrospiro[indole-3,4′-piperidin]-2-one] | 452 | 268 | 132 |  |  | 
4 | O=C1Nc2ccc(Cl)cc2C12CCN(CCOc1cnc(N3CC(O)C3)nc1)CC2 [Compound 301, 5-chloro-1′-(2-{[2-(3-hydroxyazetidin-1-yl)pyrimidin-5-yl]oxy}ethyl)-1,2-dihydrospiro[indole-3,4′-piperidin]-2-one] | 447 | 190 | 134 |  |  | 
5 | CC[C@]1(O)C[C@H](N2C(=O)CCc3cc(OCCN4CCC5(CC4)C(=O)Nc4ccc(Cl)cc45)cnc32)C1 (single isomer, unassigned) [Compound 290, 5-chloro-1′-[2-({7-oxo-8-[(trans)-3-ethyl-3-hydroxycyclobutyl]-5,6,7,8-tetrahydro-1,8-naphthyridin-3-yl}oxy)ethyl]-1,2-dihydrospiro[indole-3,4′-piperidin]-2-one] | 69.2 | 63.9 | 24 |  |  | 
6 | CS(=O)(=O)C1(c2ncc(OCCN3CCC4(CC3)C(=O)Nc3ccc(Cl)cc34)cn2)COC1 [Compound 276, 5-chloro-1′-(2-{[2-(3-methanesulfonyloxetan-3-yl)pyrimidin-5-yl]oxy}ethyl)-1,2-dihydrospiro[indole-3,4′-piperidin]-2-one] | 185 | 228 | 55 |  |  | 
7 | CS(=O)(=O)c1ccc(OCCN2CCC3(CC2)C(=O)Nc2ccc(Cl)cc23)cc1C(F)CF (single isomer, unassigned) [Compound 219, 5-chloro-1′-(2-{3-[(1R or 1S)-1,2-difluoroethyl]-4-methanesulfonylphenoxy}ethyl)-1,2-dihydrospiro[indole-3,4′-piperidin]-2-one] |  |  |  | 39 | 116 | 10.5
8 | N#Cc1ccc2c(c1)C1(CCN(CCOc3ccc(C(N)=O)c(F)c3)CC1)C(=O)N2 [Compound 238, 4-(2-{5-cyano-2-oxo-1,2-dihydrospiro[indole-3,4′-piperidin]-1′-yl}ethoxy)-2-fluorobenzamide] | > 4000 | 244 | 763 |  |  | 
9 | CS(=O)(=O)N1CC2(CN(C(=O)c3ccc(OCCN4CCC5(CC4)C(=O)Nc4ccc(Cl)cc45)cc3F)C2)C1 [Compound 273, 5-chloro-1′-[2-(3-fluoro-4-{6-methanesulfonyl-2,6-diazaspiro[3.3]heptane-2-carbonyl}phenoxy)ethyl]-1,2-dihydrospiro[indole-3,4′-piperidin]-2-one] | 71.6 | 206 | 25.8 |  |  | 
10 | CC(O)c1ncc(OCCN2CCC3(CC2)C(=O)Nc2ccc(C(F)F)cc23)cc1C(F)(F)F (single isomer, unassigned) [Compound 287, 5-(difluoromethyl)-1′-[2-({6-[(1S) or (1R)-1-hydroxyethyl]-5-(trifluoromethyl)pyridin-3-yl}oxy)ethyl]-1,2-dihydrospiro[indole-3,4′-piperidin]-2-one] | 50 | 85.8 | 13.9 |  |  | 
11 | CC(=O)N(C)CCS(=O)(=O)c1ccc(OCCN2CCC3(CC2)C(=O)Nc2ccc(Cl)cc23)cc1 [Compound 193, N-{2-[4-(2-{5-chloro-2-oxo-1,2-dihydrosiro[indole-3,4′-piperidin]-1′-yl}ethoxy)benzenesulfonyl]ethyl}-N-methylacetamide] | 288 | 377 | 70.2 |  |  | 
12 | CC(O)c1ncc(OCCN2CCC3(CC2)C(=O)Nc2ccc(Cl)cc23)cn1 (stereo not drawn) [Compound 284, 5-chloro-1′-(2-{[2-(1-hydroxyethyl)pyrimidin-5-yl]oxy}ethyl)-1,2-dihydrospiro[indole-3,4′-piperidin]-2-one] | 943 | 775 | 235 |  |  | 
13 | COCCN1C(=O)C2(CCN(CCOc3ccc(S(C)(=O)=O)cc3)CC2)c2cc(C#N)ccc21 [Compound 25, 1′-[2-(4-methanesulfonylphenoxy)ethyl]-1-(2-methoxyethyl)-2-oxo-1,2-dihydrospiro[indole-3,4′-piperidine]-5-carbonitrile] | > 4000 | ~8300 | 1230 |  |  | 
14 | CS(=O)(=O)c1ccc(OCCN2CCC3(CC2)C(=O)Nc2ccc(Cl)cc23)cc1C(F)CF (single isomer, unassigned) [Compound 218, 5-chloro-1′-(2-{3-[(1S or 1R)-1,2-difluoroethyl]-4-methanesulfonylphenoxy}ethyl)-1,2-dihydrospiro[indole-3,4′-piperidin]-2-one] |  | 125 |  | 108 |  | 31.6
15 | CC(COc1ccc2c(c1)CCC(=O)N2C)N1CCC2(CC1)C(=O)Nc1ccc(Cl)cc12 (single isomer, unassigned) [Compound 200] | 192 |  | 72.4 |  | 203 | 
16 | CN1C(=O)C2(CCN(CCOc3ccc(C4(S(C)(=O)=O)COC4)cc3)CC2)c2cc(C#N)ccc21 [Compound 251, 1′-{2-[4-(3-methanesulfonyloxetan-3-yl)phenoxy]ethyl}-1-methyl-2-oxo-1,2-dihydrospiro[indole-3,4′-piperidine]-5-carbonitrile] | 1120 | ~323 | 240 |  |  | 
17 | O=C1Nc2ccc(Cl)cc2C12CCN(CCOc1ccc3c(c1)CCS3(=O)=O)CC2 [Compound 196, 5-(2-{5-chloro-2-oxo-1,2-dihydrospiro[indole-3,4′-piperidin]-1′-yl}ethoxy)-2,3-dihydro-1λ^6-benzothiophene-1,1-dione] | 185 | 207 | 60.3 |  |  | 
18 | CC(O)c1ncc(OCCN2CCC3(CC2)C(=O)Nc2ccc(Cl)cc23)cc1C(F)(F)F (single isomer, unassigned) [Compound 292, 5-chloro-1′-[2-({6-[(1S) or (1R)-1-hydroxyethyl]-5-(trifluoromethyl)pyridin-3-yl}oxy)ethyl]-1,2-dihydrospiro[indole-3,4′-piperidin]-2-one] |  |  |  | 39.6 | 51.5 | 10.8
19 | CNC(=O)C1(c2ccc(OCCN3CCC4(CC3)C(=O)Nc3ccc(C#N)cc34)cc2)COC1 [Compound 255, 3-[4-(2-{5-cyano-2-oxo-1,2-dihydrospiro[indole-3,4′-piperidin]-1′-yl}ethoxy)phenyl]-N-methyloxetane-3-carboxamide] | 2920 | ~2900 | 575 |  |  | 
20 | CS(=O)(=O)Nc1ccc(OCCN2CCC3(CC2)C(=O)Nc2ccc(Cl)cc23)cc1 [Compound 214, N-[4-(2-{5-chloro-2-oxo-1,2-dihydrospiro[indole-3,4′-piperidin]-1′-yl}ethoxy)phenyl]methanesulfonamide] | 430 | 169 | 88.7 |  |  | 
21 | C[C@@H](COc1ccc2c(cnn2C)c1)N1CCC2(CC1)C(=O)Nc1ccc(Cl)cc12 (single isomer, unassigned) [Compound 211] | 527 | 380 | 159 |  |  | 
22 | CNC(=O)c1ccc(OCCN2CCC3(CC2)C(=O)Nc2ccc(Cl)cc23)cc1F [Compound 229, 4-(2-{5-chloro-2-oxo-1,2-dihydrospiro[indole-3,4′-piperidin]-1′-yl}ethoxy)-2-fluoro-N-methylbenzamide] | 778 | 396 | 186 |  |  | 
23 | NC(=O)c1ccc(OCCN2CCC3(CC2)C(=O)Nc2ccc(Cl)cc23)cc1C(F)F [Compound 249, 4-(2-{5-chloro-2-oxo-1,2-dihydrospiro[indole-3,4′-piperidin]-1′-yl}ethoxy)-2-(difluoromethyl)benzamide] | 73.8 | 70.6 | 22.1 |  |  | 
